Series [1] concerns the target D-2 dopamine receptor. The following applies: cited from earlier work; for Kd: Table 1, in vitro binding; for affinity for D-2 dopamine receptor / nonspecific binding: rat striatum tissue preparations; for affinity and selectivity to the D-2 dopamine receptor: striatal membrane preparation.
In the next series the target is T1, D-2 dopamine receptors (Rattus norvegicus, UniProt P61169).
T1 construct: Striatal tissues were excised, pooled and homogenized in 100 volumes (w/v) of ice-cold Tris-HCl buffer; from tissue; host or cells: rat striatum (male Sprague-Dawley), twice-centrifuged membrane homogenate
T1 sequence (P61169 whole entry): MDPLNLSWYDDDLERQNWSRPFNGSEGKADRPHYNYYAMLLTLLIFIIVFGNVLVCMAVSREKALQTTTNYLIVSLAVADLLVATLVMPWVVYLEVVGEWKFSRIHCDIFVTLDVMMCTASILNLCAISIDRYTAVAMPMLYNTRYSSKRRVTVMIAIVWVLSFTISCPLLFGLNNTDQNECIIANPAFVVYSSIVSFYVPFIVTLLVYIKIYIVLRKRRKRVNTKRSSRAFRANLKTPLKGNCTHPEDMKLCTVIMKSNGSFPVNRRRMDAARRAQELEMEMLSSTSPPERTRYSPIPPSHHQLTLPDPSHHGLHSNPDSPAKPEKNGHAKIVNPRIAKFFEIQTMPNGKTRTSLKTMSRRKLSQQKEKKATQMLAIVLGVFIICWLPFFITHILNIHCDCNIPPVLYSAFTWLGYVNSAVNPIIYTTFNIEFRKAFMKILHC
Put plainly: Competition binding using [^125 I]IBZM, rat striatal membranes. The protocol:
*0.15-0.4 nM [^125 I]IBZM was incubated in the presence of the
(§1) indicated compounds in 7-11 concentrations and of membrane preparation
(§2) from rat striatum. Each value represents the mean ± SEM of three to
(§3) Male Sprague-Dawley rats (200-250 g) were decapitated, and the brains were removed and placed in ice. Striatal tissues were excised, pooled and homogenized in 100 volumes (w/v) of ice-cold Tris-HCl buffer (50 mM), pH 7.4. The homogenates were centrifuged at 20,000× g for 20 min. The resultant pellets were rehomogenized in the same buffer and centrifuged again. The final pellets were resuspended in assay buffer containing: 50 mM Tris buffer pH 7.4, 120 mM NaCl, 5 mM KCl, 2 mM CaCl2 and 1 mM MgCl2 and kept at -20° C. for the following binding assay.
(§4) The binding assays were performed by incubating 50 μl of tissue preparations containing 40-60 μg of protein with appropriate amounts of l-125 labeled ligand and competitors in a total volume of 0.2 ml of the assay buffer. After an incubation period of 15 min at 37° C. (with stirring), the samples were rapidly filtered in the cell harvester (Brandel M-24R) under vacuum through Whatman GF/B glass fiber filters pretreated with 0.2% protamine base and washed with 3×5 ml of cold (4° C.) 50 mM Tris-HCl buffer, pH 7.4. […] The filters were counted in a gamma counter (Beckman 5500) at an efficiency of 70%.

Series [2] relates to CNS D-2 dopamine receptor. The note with it: cited from earlier work.
For series [3], the system named is D-2 dopamine receptor. The following applies: cited from earlier work.
Series [4] concerns the target D-2 dopamine receptor. The note with it: read-out: IC50 against [H^3]spiperone binding of rat striatal tissue preparation; Table 1 footnote; cited from earlier work.
The target in series [5] is T2, dopamine D-2 receptor (Rattus norvegicus, UniProt P61169).
T2 construct: Striatal tissues were excised, pooled and homogenized in 100 volumes (w/v) of ice-cold Tris-HCl buffer; from tissue; host or cells: rat striatum (male Sprague-Dawley), twice-centrifuged membrane homogenate
T2 sequence (P61169 whole entry): as above
Kind of series: Competition binding using [^125 I]IBF, rat striatal membranes. The following applies: [^125 I]IBF 0.15-0.30 nM, mean ± SEM of three to five determinations. How it is done: *0.15-0.30 nM [^125 I]IBF was incubated in the presence of the
as §1, §2, §3, §4

Series [6] has as its system D-2 dopamine receptor. The note with it: cited from earlier work; for nonspecific binding: in vitro.
Series [7] can be described thus: Biodistribution in rats after IV injection. The series is classed as in vivo, rat. The following applies: IV, average of 3 rats ± SD. The protocol:
Male Sprague Dawley rats (225-300 g), which were allowed free access to food and water, were used for in vivo biodistribution study. While under halothane anesthesia, 0.2 ml of a saline solution containing [^125 l]IBF, 21, (8-10 μCi) was injected directly into the femoral vein, and the rats were sacrificed at various time points postinjection by cardiac excision under halothane anesthesia. The organs of interest were removed, weighed and the radioactivity was counted using a Beckman gamma automatic counter (Model 4000). The percent dose per organ was calculated by a comparison of the tissue counts to suitably diluted aliquots of the injected material. Total activities of blood and muscle were calculated assuming that they are 7% and 40% of total body weight, respectively.

Series [8] deals with T2, dopamine D-2 receptor. Put plainly: Saturation binding of [^125 I]IBF to rat striatal homogenate in vitro. The note with it: saturation curve, FIG. 1. How it is done: as §3, §4
[9] abbreviates: [^125 I]IBZM 0.15-0.4 nM, mean ± SEM of three to five determinations.
Setting [10] is: N-methylspiperone imaging agent, determined earlier.

Like-named read-outs stand apart in the source and are kept apart here.

As to `CCc1cc(Cl)c(OC)c(C(=O)NC[C@@H]2CCCN2CC)c1O` [Eticlopride], at D-2 dopamine receptor [1], the Kd (in general, the concentration at which binding is half-saturated) was 0.17 nM; the “affinity for D-2 dopamine receptor” value is given as “high affinity”; the “nonspecific binding” value was “low nonspecific binding”.
On to `CCN1CCC[C@H]1CNC(=O)c1cc2ccccc2cc1OC` [Compound 11, (S)-(-)-3-Methoxy-N-[(1-ethyl-2-pyrrolidinyl)methyl]naphthyl-2-carboxamide], for which the Ki – broadly, a dissociation constant, usually derived from enzyme kinetics or from competition with a known ligand – amounted to 30 ± 4.2 nM at D-2 dopamine receptors (setting [9]) and 30 nM on D-2 dopamine receptors ([^125 I]IBZM binding).
With `CCN1CCC[C@H]1CNC(=O)c1c(O)c(Cl)cc(Cl)c1O[11CH3]` (racemic) [[^11 C]raclopride], the “affinity constant Kd” value in series [2] (living human brain, PET, equilibrium model and Scatchard plots) was 7.1 nM. In series [2] (living human brain, PET), the Bmax is 15 pmol/mL and the “ratio of specific striatal to nonspecific cerebellar binding” value is recorded as “high ratio”.
On to `CCN1CCC[C@H]1CNC(=O)c1c(OC)ccc([123I])c1O` [S-[^123 I]IBZM], for which, in the series on D-2 dopamine receptor [3] (immediately after intravenous injection, humans), the “basal ganglia uptake, planar imaging” value was “high concentration in basal ganglia of the brain”. In the series on D-2 dopamine receptor [3] (normal human brain, 1 hour postinjection), the “basal ganglia uptake, SPECT” value is “highly specific uptake in the basal ganglia of the brain”.
As to `CCN1CCC[C@H]1CNC(=O)c1cc2cc(I)ccc2cc1OC` [Compound 8, (S)-(-)-7-Iodo-3-methoxy-N-[(1-ethyl-2-pyrrolidinyl)methyl]naphthyl-2-carboxamide], the values for the Ki on D-2 dopamine receptors (setting [9]) and at D-2 dopamine receptors ([^125 I]IBZM binding) were 168 ± 13 nM and 168 nM, respectively.
For `CCN1CCC[C@H]1CNC(=O)c1cccc2c1OCC2` [Compound 23, 7-N-[(1-ethyl-2-pyrrolidinyl)methyl]carboxamido-2,3-dihydrobenzofuran] the same measures were 135 ± 22 nM and 135 nM.
For the compound `CCN1CCC[C@H]1CNC(=O)c1c(O)c(Cl)cc(Cl)c1OC` [Raclopride], on D-2 dopamine receptor [1], the Kd is 1.1 nM, the “affinity for D-2 dopamine receptor” value is recorded as “high affinity” and the “nonspecific binding” value is on record as “low nonspecific binding”.
Consider `CCN1CCC[C@H]1CNC(=O)c1cc(I)ccc1OC` [Iodopride], for which, in the series on D-2 dopamine receptor [1], the “affinity and selectivity to the D-2 dopamine receptor” value (“affinity and selectivity” for short) was “very high affinity and selectivity”. Also, the IC50 at D-2 dopamine receptor [4] is 3 nM.
In turn, `O=C(c1ccc(F)cc1)C1CCN(CCn2c(=O)[nH]c3ccccc3c2=O)CC1` [Ketanserin] showed an inhibition constant (Ki) on dopamine D-2 receptor [5] of 491 ± 49 nM.
Take `CCN1CCC[C@H]1CNC(=O)c1c(O)cccc1OC` [BZM]: the equilibrium dissociation constant (Kd) at D-2 dopamine receptor [1] is 31.1 nM.
As to `CCN1CCC[C@H]1CNC(=O)c1c(OC)ccc([125I])c1O` [[^125 I]IBZM, reference compound], in the series with D-2 dopamine receptor [6], the nonspecific binding is 5%. This compound returned a Brain uptake in series [7] (2 min) of 2.87 % Dose/Organ. The Thyroid uptake in series [7] (60 min) was found to be 0.1 % Dose/Organ.
Consider `CCN1CCC[C@H]1CNC(=O)c1cc2cc(Br)ccc2cc1OC` [Compound 6, S-(-)-7-Bromo-3-methoxy-N[(1-ethyl-2-pyrrolidinyl)methyl]naphthyl-2-carboxamide], for which the Ki at D-2 dopamine receptors (setting [9]) came to 82 ± 12 nM; at D-2 dopamine receptors ([^125 I]IBZM binding), 82 nM.
In the case of `CCN1CCC[C@H]1CNC(=O)c1cc(I)cc2c1OCC2` [Compound 21, 5-Iodo-7-N-[(1-ethyl-2-pyrrolidinyl)methyl]carboxamido-2,3-dihydrobenzofuran], the inhibitory constant (Ki) was 0.085 ± 0.01 nM at dopamine D-2 receptor [5], 0.33 ± 0.02 nM at D-2 dopamine receptors (setting [9]) and 0.23 nM on D-2 dopamine receptors ([^125 I]IBZM binding). Also, the “nonspecific binding” value at dopamine D-2 receptor [8] is given as “low nonspecific binding”. Further, at D-2 dopamine receptors (iodo (21) vs bromo (19)), the “times more effective than the bromine atom for increasing competitive binding affinity” value was “sixteen”.
On to `CCN1CCC[C@H]1CNC(=O)c1c(OC)ccc2ccccc12` [Comparative Cpd. B, 2-Methoxy-N-[(1-ethyl-2-pyrrolidinyl)methyl]naphthyl-1-carboxamide, reference compound], for which the affinity on D-2 dopamine receptors (setting [9]) corresponds to a Ki of 507 ± 29 nM.
In the case of `COc1cc(N=[N+]=[N-])c(I)cc1C(=O)NC1CCN(Cc2ccccc2)CC1` [Iodoazidoclebopride], at D-2 dopamine receptor [1], the Kd is 14 nM; the “affinity and selectivity” value is “very high affinity and selectivity”.
In the case of `O=C(CCCN1CCC2(CC1)C(=O)NCN2c1ccccc1)c1ccc(F)cc1I` [2'-ISP], in the series on D-2 dopamine receptor [6], the “D-2 specificity” value is “excellent D-2 specificity” and the nonspecific binding is listed as 40%. In addition, the dissociation constant Kd on D-2 dopamine receptor [6] (rat striatum) is 0.25 nM.
As for `CCN1CCC[C@H]1CNC(=O)c1c(OC)ccc(I)c1O` [IBZM], the Ki on dopamine D-2 receptor [5] was determined as 0.261 ± 0.018 nM. For the same compound, on D-2 dopamine receptor [1], the equilibrium dissociation constant (Kd) is 0.43 nM; the “affinity and selectivity” value was “very high affinity and selectivity”.
Compound `NC1CCc2cc(O)c(O)cc2C1` (single isomer, unassigned; (+)) [(+) ADTN,6,7] displayed a Ki on dopamine D-2 receptor [5] of 65.7 ± 13 nM.
Consider `CN1CN(c2ccccc2)C2(CCN(CCCC(=O)c3ccc(F)cc3)CC2)C1=O` [N-methylspiperone], for which, in [2] (setting [10]), the Bmax was 16.6 pmol/g and the dissociation constant Kd was 0.097 nM.
At D-2 dopamine receptors (setting [9]), `CCN1CCC[C@H]1CNC(=O)c1cc2cc(Br)ccc2cc1O` [Comparative Cpd. A, reference compound] yielded a Ki of 280 ± 47 nM.

The values are drawn from US5334728A (The Trustees of The University of Pennsylvania, priority 1992, dated 1994).
